Measured values: patent US12723050B2, “Crystal form of compound and use thereof” (TENNOR THERAPEUTICS (SUZHOU) LIMITED, priority 2023, dated 2026)
Each block holds one compound with its values, some of them ahead of it.

Columns and labels:
Assay type in all cases: physicochemical
[1] = Crystal form stability on drying or heating (XRPD)
Experimental: 40.05 g of the crude compound of formula (I) was weighed and mixed with ethanol of 5 folds by mass, and the mixture was stirred at 25° C. for 30 minutes. At this point, a visible solid precipitate was observed. The mixture was stirred for another 2-3 hours, followed by filtration. The wet cake was washed with 80 mL of ethanol. Three solvate crystal forms, C1, C2, and C3, with different structures were detected in the undried wet product of the compound of formula (I) formed in ethanol. Their XRPD results are shown in FIGS. 9A-9C, Table 2-1, Table 2-2, and Table 2-3.
Furthermore, the sample had 3 endothermic peaks at 85.6° C., 130.7° C., and 144.3° C. (peak temperatures). […] To further investigate the substantial TGA weight loss of the crystal form B sample, a heating experiment was performed on it. […] Due to the crystal form conversion upon sample heating, combined with the substantial TGA weight loss and the solvent residue indicated by the nuclear magnetic resonance results after heating, it can be inferred that crystal form B is a toluene solvate.
(§1) DVS profiles were acquired on SMS (Surface Measurement Systems) DVS Intrinsic and DVS Intrinsic plus. The relative humidity at 25° C. was calibrated using the deliquescence points of LiCl, Mg(NO3)2, and KCl.

[2] = Hygroscopicity test (dynamic vapor sorption, DVS), with XRPD before and after; settings: for moisture uptake (DVS): 25° C./80% RH
Experimental: as §1

[3] = Solid stability evaluation (XRPD and HPLC) of samples left to stand open; settings: for HPLC peak 6, RRT 1.00 (main peak): in %
Experimental: The crystal form A was left to stand open at 60° C. for 24 hours, and at 25° C./60% RH and 40° C./75% RH for 1 week. The physical and chemical stability of the samples was detected by XRPD and HPLC. The stability evaluation results are summarized in Table 4, the XRPD results are shown in FIG. 12, and the HPLC results are shown in Table 5 and FIG. 13.

[4] = open, 60° C. 24 hours, 25° C./60% RH and 40° C./75% RH 1 week

crystal form after drying (XRPD) ([1]; wet product from ethanol, after drying): converted to crystal form A
Structure (SMILES): CO[C@H]1/C=C/O[C@@]2(C)Oc3c(C)c(O)c4c(c3C2=O)C2=NC3(CCN(CCn5c([N+](=O)[O-])cnc5C)CC3)NC2=C(NC(=O)/C(C)=C\C=C\[C@H](C)[C@H](O)[C@@H](C)[C@@H](O)[C@@H](C)[C@H](OC(C)=O)[C@@H]1C)C4=O [crystal form C1]

moisture uptake (DVS) [2]: 2.880%
crystal form conversion, XRPD before and after the DVS test ([2]; before and after DVS test): no crystal form conversion
stability of the crystal form ([2]; judged from XRPD before and after DVS test): good stability
HPLC impurity peak 1, RRT 0.81 ([3]; 25° C./60% RH/Open/1 week): 0.18
HPLC impurity peak 2, RRT 0.83 ([3]; 25° C./60% RH/Open/1 week): 0.06
HPLC impurity peak 3, RRT 0.87 ([3]; 25° C./60% RH/Open/1 week): 0.05
HPLC impurity peak 4, RRT 0.91 ([3]; 25° C./60% RH/Open/1 week): 0.06
HPLC impurity peak 5, RRT 0.97 ([3]; 25° C./60% RH/Open/1 week): 0.19
HPLC peak 6, RRT 1.00 (main peak) ([3]; 25° C./60% RH/Open/1 week): 99.45
Change in crystal form ([3]; 25° C./60° C. RH, 1 week, open): No
HPLC purity ([3]; 25° C./60° C. RH, 1 week, open): 99.45 area %
Change in crystal form ([3]; 40° C./75% RH, 1 week, open): No
HPLC purity ([3]; 40° C./75% RH, 1 week, open): 99.29 area %
HPLC impurity peak 1, RRT 0.81 ([3]; 40° C./75% RH/Open/1 week): 0.38
HPLC impurity peak 2, RRT 0.83 ([3]; 40° C./75% RH/Open/1 week): 0.06
HPLC impurity peak 3, RRT 0.87 ([3]; 40° C./75% RH/Open/1 week): 0.05
HPLC impurity peak 4, RRT 0.91 ([3]; 40° C./75% RH/Open/1 week): 0.06
HPLC impurity peak 5, RRT 0.97 ([3]; 40° C./75% RH/Open/1 week): 0.16
HPLC peak 6, RRT 1.00 (main peak) ([3]; 40° C./75% RH/Open/1 week): 99.29
Change in crystal form ([3]; 60° C., 24 hours, open): No
HPLC purity ([3]; 60° C., 24 hours, open): 99.33 area %
HPLC impurity peak 1, RRT 0.81 ([3]; 60° C./open/24 hours): 0.30
HPLC impurity peak 2, RRT 0.83 ([3]; 60° C./open/24 hours): 0.07
HPLC impurity peak 3, RRT 0.87 ([3]; 60° C./open/24 hours): 0.06
HPLC impurity peak 4, RRT 0.91 ([3]; 60° C./open/24 hours): 0.07
HPLC impurity peak 5, RRT 0.97 ([3]; 60° C./open/24 hours): 0.17
HPLC peak 6, RRT 1.00 (main peak) ([3]; 60° C./open/24 hours): 99.33
HPLC impurity peak 1, RRT 0.81 ([3]; Starting sample): 0.29
HPLC impurity peak 2, RRT 0.83 ([3]; Starting sample): 0.07
HPLC impurity peak 3, RRT 0.87 ([3]; Starting sample): 0.08
HPLC impurity peak 4, RRT 0.91 ([3]; Starting sample): 0.07
HPLC impurity peak 5, RRT 0.97 ([3]; Starting sample): 0.17
HPLC purity ([3]; Starting sample): 99.32 area %
HPLC peak 6, RRT 1.00 (main peak) ([3]; Starting sample): 99.32
change in purity (HPLC) [3, 4]: no significant change in purity
crystal form conversion (XRPD) [3, 4]: no crystal form conversion
Structure (SMILES): CO[C@H]1/C=C/O[C@@]2(C)Oc3c(C)c(O)c4c(c3C2=O)C2=NC3(CCN(CCn5c([N+](=O)[O-])cnc5C)CC3)NC2=C(NC(=O)/C(C)=C\C=C\[C@H](C)[C@H](O)[C@@H](C)[C@@H](O)[C@@H](C)[C@H](OC(C)=O)[C@@H]1C)C4=O [crystal form A]

crystal form stability ([1]; after heating or drying, all converted to crystal form A): poor crystal form stability
crystal form after air-drying (XRPD) ([1]; air-drying at room temperature for 24 hours): remained unchanged
crystal form after heating (XRPD) ([1]; heating to 115° C. and cooling to room temperature): remained unchanged
crystal form after heating (XRPD) ([1]; heating to 140° C. and cooling to room temperature): converted to crystal form A
Structure (SMILES): CO[C@H]1/C=C/O[C@@]2(C)Oc3c(C)c(O)c4c(c3C2=O)C2=NC3(CCN(CCn5c([N+](=O)[O-])cnc5C)CC3)NC2=C(NC(=O)/C(C)=C\C=C\[C@H](C)[C@H](O)[C@@H](C)[C@@H](O)[C@@H](C)[C@H](OC(C)=O)[C@@H]1C)C4=O [crystal form B]

moisture uptake (DVS) [2]: 5.941%
Structure (SMILES): CO[C@H]1/C=C/O[C@@]2(C)Oc3c(C)c(O)c4c(c3C2=O)C2=NC3(CCN(CCn5c([N+](=O)[O-])cnc5C)CC3)NC2=C(NC(=O)/C(C)=C\C=C\[C@H](C)[C@H](O)[C@@H](C)[C@@H](O)[C@@H](C)[C@H](OC(C)=O)[C@@H]1C)C4=O [amorphous form]
